{
  "source": "PubChem BioAssay AID1963437",
  "about": "(Molecular Pharmacology Branch, DTP, NCI, 2024)",
  "system": "OVCAR-8 complex spheroid, growth inhibition",
  "experiment": "Anticancer human tumor OVCAR-8 cell line growth inhibition [Asc];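 further: spheroids exposed to agents for 7 days before readout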;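 on viability, T/C: percent viability relative to DMSO vehicle wells taken as 100%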",
  "conditions": "for IC50: curve of first compound; for viability, T/C: stronger effect = lower value",
  "procedure,_shortened": "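Complex solid-tumor spheroids incorporating human endothelial and mesenchymal stem cells received single agents or combinations over half-log dilution ranges anchored to clinical Cmax.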",
  "data": [
    {"smiles": "NC(=O)C(=Cn1cnc(-c2cc(C(F)(F)F)cc(C(F)(F)F)c2)n1)c1cncnc1", "note": "+ Cc1c(S(C)(=O)=O)c(-c2cc(F)cc(N3CCN(c4ccc(NS(=O)(=O)c5ccc(NC(CCN6CCC(C(=O)OCCCP(=O)(O)O)CC6)CSc6ccccc6)c(S(=O)(=O)C(F)(F)F)c5)cc4)CC3)c2)c(-c2ccc(Cl)cc2)n1C(C)C", "values": [
      {"measurement": "IC50", "setting": "second compound 0.0316 µM", "result": "> 300", "unit": "nM"},
      {"measurement": "IC50", "setting": "second compound 0.1 µM", "result": "> 300", "unit": "nM"},
      {"measurement": "IC50", "setting": "second compound 0.316 µM", "result": 219, "unit": "nM"},
      {"measurement": "IC50", "setting": "second compound 1 µM", "result": 155, "unit": "nM"},
      {"measurement": "IC50", "setting": "second compound 3.16 µM", "result": 131, "unit": "nM"},
      {"measurement": "IC50", "setting": "second compound 10 µM", "result": 108, "unit": "nM"},
      {"measurement": "viability, T/C", "setting": "second compound 0.0316 µM, first compound 0.000949 µM", "result": 107, "unit": "%"},
      {"measurement": "viability, T/C", "setting": "second compound 0.0316 µM, first compound 0.003 µM", "result": 97.1, "unit": "%"},
      {"measurement": "viability, T/C", "setting": "second compound 0.0316 µM, first compound 0.00949 µM", "result": 103, "unit": "%"},
      {"measurement": "viability, T/C", "setting": "second compound 0.0316 µM, first compound 0.03 µM", "result": 114, "unit": "%"},
      {"measurement": "viability, T/C", "setting": "second compound 0.0316 µM, first compound 0.0949 µM", "result": 89.3, "unit": "%"},
      {"measurement": "viability, T/C", "setting": "second compound 0.0316 µM, first compound 0.3 µM", "result": 55.4, "unit": "%"},
      {"measurement": "viability, T/C", "setting": "second compound 0.1 µM, first compound 0.000949 µM", "result": 103, "unit": "%"},
      {"measurement": "viability, T/C", "setting": "second compound 0.1 µM, first compound 0.003 µM", "result": 92.6, "unit": "%"},
      {"measurement": "viability, T/C", "setting": "second compound 0.1 µM, first compound 0.00949 µM", "result": 93.5, "unit": "%"},
      {"measurement": "viability, T/C", "setting": "second compound 0.1 µM, first compound 0.03 µM", "result": 102, "unit": "%"},
      {"measurement": "viability, T/C", "setting": "second compound 0.1 µM, first compound 0.0949 µM", "result": 90.4, "unit": "%"},
      {"measurement": "viability, T/C", "setting": "second compound 0.1 µM, first compound 0.3 µM", "result": 57.6, "unit": "%"},
      {"measurement": "viability, T/C", "setting": "second compound 0.316 µM, first compound 0.000949 µM", "result": 115, "unit": "%"},
      {"measurement": "viability, T/C", "setting": "second compound 0.316 µM, first compound 0.003 µM", "result": 112, "unit": "%"},
      {"measurement": "viability, T/C", "setting": "second compound 0.316 µM, first compound 0.00949 µM", "result": 101, "unit": "%"},
      {"measurement": "viability, T/C", "setting": "second compound 0.316 µM, first compound 0.03 µM", "result": 107, "unit": "%"},
      {"measurement": "viability, T/C", "setting": "second compound 0.316 µM, first compound 0.0949 µM", "result": 90.4, "unit": "%"},
      {"measurement": "viability, T/C", "setting": "second compound 0.316 µM, first compound 0.3 µM", "result": 34.8, "unit": "%"},
      {"measurement": "viability, T/C", "setting": "second compound 1 µM, first compound 0.000949 µM", "result": 119, "unit": "%"},
      {"measurement": "viability, T/C", "setting": "second compound 1 µM, first compound 0.003 µM", "result": 111, "unit": "%"},
      {"measurement": "viability, T/C", "setting": "second compound 1 µM, first compound 0.00949 µM", "result": 114, "unit": "%"},
      {"measurement": "viability, T/C", "setting": "second compound 1 µM, first compound 0.03 µM", "result": 116, "unit": "%"},
      {"measurement": "viability, T/C", "setting": "second compound 1 µM, first compound 0.0949 µM", "result": 73.8, "unit": "%"},
      {"measurement": "viability, T/C", "setting": "second compound 1 µM, first compound 0.3 µM", "result": 18.1, "unit": "%"},
      {"measurement": "viability, T/C", "setting": "second compound 3.16 µM, first compound 0.000949 µM", "result": 109, "unit": "%"},
      {"measurement": "viability, T/C", "setting": "second compound 3.16 µM, first compound 0.003 µM", "result": 104, "unit": "%"},
      {"measurement": "viability, T/C", "setting": "second compound 3.16 µM, first compound 0.00949 µM", "result": 121, "unit": "%"},
      {"measurement": "viability, T/C", "setting": "second compound 3.16 µM, first compound 0.03 µM", "result": 111, "unit": "%"},
      {"measurement": "viability, T/C", "setting": "second compound 3.16 µM, first compound 0.0949 µM", "result": 66.7, "unit": "%"},
      {"measurement": "viability, T/C", "setting": "second compound 3.16 µM, first compound 0.3 µM", "result": 6.92, "unit": "%"},
      {"measurement": "viability, T/C", "setting": "second compound 10 µM, first compound 0.000949 µM", "result": 117, "unit": "%"},
      {"measurement": "viability, T/C", "setting": "second compound 10 µM, first compound 0.003 µM", "result": 115, "unit": "%"},
      {"measurement": "viability, T/C", "setting": "second compound 10 µM, first compound 0.00949 µM", "result": 132, "unit": "%"},
      {"measurement": "viability, T/C", "setting": "second compound 10 µM, first compound 0.03 µM", "result": 127, "unit": "%"},
      {"measurement": "viability, T/C", "setting": "second compound 10 µM, first compound 0.0949 µM", "result": 55.8, "unit": "%"},
      {"measurement": "viability, T/C", "setting": "second compound 10 µM, first compound 0.3 µM", "result": 4.41, "unit": "%"}
    ]},
    {"smiles": "NC1CCC(NC2CC2c2ccccc2)CC1", "note": "(centres undefined) + Cc1c(S(C)(=O)=O)c(-c2cc(F)cc(N3CCN(c4ccc(NS(=O)(=O)c5ccc(NC(CCN6CCC(C(=O)OCCCP(=O)(O)O)CC6)CSc6ccccc6)c(S(=O)(=O)C(F)(F)F)c5)cc4)CC3)c2)c(-c2ccc(Cl)cc2)n1C(C)C", "values": [
      {"measurement": "IC50", "setting": "second compound 0.0316 µM", "result": "> 100", "unit": "nM"},
      {"measurement": "IC50", "setting": "second compound 0.1 µM", "result": "> 100", "unit": "nM"},
      {"measurement": "IC50", "setting": "second compound 0.316 µM", "result": "> 100", "unit": "nM"},
      {"measurement": "IC50", "setting": "second compound 1 µM", "result": "> 100", "unit": "nM"},
      {"measurement": "IC50", "setting": "second compound 3.16 µM", "result": "> 100", "unit": "nM"},
      {"measurement": "IC50", "setting": "second compound 10 µM", "result": "> 100", "unit": "nM"},
      {"measurement": "viability, T/C", "setting": "second compound 0.0316 µM, first compound 0.000316 µM", "result": 111, "unit": "%"},
      {"measurement": "viability, T/C", "setting": "second compound 0.0316 µM, first compound 0.001 µM", "result": 109, "unit": "%"},
      {"measurement": "viability, T/C", "setting": "second compound 0.0316 µM, first compound 0.00316 µM", "result": 83.2, "unit": "%"},
      {"measurement": "viability, T/C", "setting": "second compound 0.0316 µM, first compound 0.01 µM", "result": 101, "unit": "%"},
      {"measurement": "viability, T/C", "setting": "second compound 0.0316 µM, first compound 0.0316 µM", "result": 109, "unit": "%"},
      {"measurement": "viability, T/C", "setting": "second compound 0.0316 µM, first compound 0.1 µM", "result": 80.5, "unit": "%"},
      {"measurement": "viability, T/C", "setting": "second compound 0.1 µM, first compound 0.000316 µM", "result": 97.5, "unit": "%"},
      {"measurement": "viability, T/C", "setting": "second compound 0.1 µM, first compound 0.001 µM", "result": 102, "unit": "%"},
      {"measurement": "viability, T/C", "setting": "second compound 0.1 µM, first compound 0.00316 µM", "result": 93.4, "unit": "%"},
      {"measurement": "viability, T/C", "setting": "second compound 0.1 µM, first compound 0.01 µM", "result": 105, "unit": "%"},
      {"measurement": "viability, T/C", "setting": "second compound 0.1 µM, first compound 0.0316 µM", "result": 120, "unit": "%"},
      {"measurement": "viability, T/C", "setting": "second compound 0.1 µM, first compound 0.1 µM", "result": 91.8, "unit": "%"},
      {"measurement": "viability, T/C", "setting": "second compound 0.316 µM, first compound 0.000316 µM", "result": 99.2, "unit": "%"},
      {"measurement": "viability, T/C", "setting": "second compound 0.316 µM, first compound 0.001 µM", "result": 97.3, "unit": "%"},
      {"measurement": "viability, T/C", "setting": "second compound 0.316 µM, first compound 0.00316 µM", "result": 111, "unit": "%"},
      {"measurement": "viability, T/C", "setting": "second compound 0.316 µM, first compound 0.01 µM", "result": 100, "unit": "%"},
      {"measurement": "viability, T/C", "setting": "second compound 0.316 µM, first compound 0.0316 µM", "result": 108, "unit": "%"},
      {"measurement": "viability, T/C", "setting": "second compound 0.316 µM, first compound 0.1 µM", "result": 106, "unit": "%"},
      {"measurement": "viability, T/C", "setting": "second compound 1 µM, first compound 0.000316 µM", "result": 118, "unit": "%"},
      {"measurement": "viability, T/C", "setting": "second compound 1 µM, first compound 0.001 µM", "result": 114, "unit": "%"},
      {"measurement": "viability, T/C", "setting": "second compound 1 µM, first compound 0.00316 µM", "result": 103, "unit": "%"},
      {"measurement": "viability, T/C", "setting": "second compound 1 µM, first compound 0.01 µM", "result": 107, "unit": "%"},
      {"measurement": "viability, T/C", "setting": "second compound 1 µM, first compound 0.0316 µM", "result": 132, "unit": "%"},
      {"measurement": "viability, T/C", "setting": "second compound 1 µM, first compound 0.1 µM", "result": 106, "unit": "%"},
      {"measurement": "viability, T/C", "setting": "second compound 3.16 µM, first compound 0.000316 µM", "result": 99.3, "unit": "%"},
      {"measurement": "viability, T/C", "setting": "second compound 3.16 µM, first compound 0.001 µM", "result": 101, "unit": "%"},
      {"measurement": "viability, T/C", "setting": "second compound 3.16 µM, first compound 0.00316 µM", "result": 119, "unit": "%"},
      {"measurement": "viability, T/C", "setting": "second compound 3.16 µM, first compound 0.01 µM", "result": 118, "unit": "%"},
      {"measurement": "viability, T/C", "setting": "second compound 3.16 µM, first compound 0.0316 µM", "result": 123, "unit": "%"},
      {"measurement": "viability, T/C", "setting": "second compound 3.16 µM, first compound 0.1 µM", "result": 104, "unit": "%"},
      {"measurement": "viability, T/C", "setting": "second compound 10 µM, first compound 0.000316 µM", "result": 105, "unit": "%"},
      {"measurement": "viability, T/C", "setting": "second compound 10 µM, first compound 0.001 µM", "result": 99.6, "unit": "%"},
      {"measurement": "viability, T/C", "setting": "second compound 10 µM, first compound 0.00316 µM", "result": 113, "unit": "%"},
      {"measurement": "viability, T/C", "setting": "second compound 10 µM, first compound 0.01 µM", "result": 137, "unit": "%"},
      {"measurement": "viability, T/C", "setting": "second compound 10 µM, first compound 0.0316 µM", "result": 133, "unit": "%"},
      {"measurement": "viability, T/C", "setting": "second compound 10 µM, first compound 0.1 µM", "result": 118, "unit": "%"}
    ]}
  ]
}
